Counter-ions that a name gives are not always drawn.
Structure (SMILES) | melting point [°C]
CCNC(=O)c1ccc(-c2ccc3c(c2)CCN([C@@H]2CCN(C4CCCC4)C2)C3=O)cc1 (as salt: hydrochloride) [Example 42, 4-{2-[(3R)-1-cyclopentylpyrrolidin-3-yl]-1-oxo-1,2,3,4-tetrahydroisoquinolin-6-yl}-N-ethylbenzamide] | > 200
O=C(c1ccc(-c2ccc3c(c2)CCN([C@@H]2CCN(C4CCCC4)C2)C3=O)cc1)N1CCCC1 (as salt: hydrochloride) [Example 43, 2-[(3R)-1-cyclopentylpyrrolidin-3-yl]-6-[4-(pyrrolidin-1-ylcarbonyl)phenyl]-3,4-dihydroisoquinolin-1(2H)-one] | > 200
CNC(=O)c1ccc(-c2ccc3c(c2)CCN([C@@H]2CCN(C4CCC4)C2)C3=O)cc1 (as salt: hydrochloride) [Example 44, 4-{2-[(3R)-1-cyclobutylpyrrolidin-3-yl]-1-oxo-1,2,3,4-tetrahydroisoquinolin-6-yl}-N-methylbenzamide] | 263 to 265
CCNC(=O)c1ccc(-c2ccc3c(c2)CCN([C@@H]2CCN(C4CCC4)C2)C3=O)cc1 (as salt: hydrochloride) [Example 45, 4-{2-[(3R)-1-cyclobutylpyrrolidin-3-yl]-1-oxo-1,2,3,4-tetrahydroisoquinolin-6-yl}-N-ethylbenzamide] | 268 to 272
CN(C)C(=O)c1ccc(-c2ccc3c(c2)CCN([C@@H]2CCN(C4CCC4)C2)C3=O)cc1 (as salt: hydrochloride) [Example 46, 4-{2-[(3R)-1-cyclobutylpyrrolidin-3-yl]-1-oxo-1,2,3,4-tetrahydroisoquinolin-6-yl}-N,N-dimethylbenzamide] | 211 to 212
O=C(c1ccc(-c2ccc3c(c2)CCN([C@@H]2CCN(C4CCC4)C2)C3=O)cc1)N1CCCC1 (as salt: hydrochloride) [Example 47, 2-[(3R)-1-cyclobutylpyrrolidin-3-yl]-6-[4-(pyrrolidin-1-ylcarbonyl)phenyl]-3,4-dihydroisoquinolin-1(2H)-one] | 215 to 217
O=C(c1ccc(-c2ccc3c(c2)CCN([C@@H]2CCN(C4CCC4)C2)C3=O)cc1F)N1CCCC1 (as salt: hydrochloride) [Example 48, 2-[(3R)-1-cyclobutylpyrrolidin-3-yl]-6-[3-fluoro-4-(pyrrolidin-1-ylcarbonyl)phenyl]-3,4-dihydroisoquinolin-1(2H)-one] | 235 to 236
O=C(c1ccc(-c2ccc3c(c2)CCN([C@@H]2CCN(C4CCC4)C2)C3=O)cc1Cl)N1CCCC1 (as salt: hydrochloride) [Example 49, 6-[3-chloro-4-(pyrrolidin-1-ylcarbonyl)phenyl]-2-[(3R)-1-cyclobutylpyrrolidin-3-yl]-3,4-dihydroisoquinolin-1(2H)-one] | 198 to 200
O=C1c2ccc(-c3ccccc3)cc2CCN1[C@@H]1CCN(C2CCC2)C1 (as salt: hydrochloride) [Example 50, 2-[(3R)-1-cyclobutylpyrrolidin-3-yl]-6-phenyl-3,4-dihydroisoquinolin-1(2H)-one] | > 255
O=C1c2ccc(-c3ccc(F)cc3)cc2CCN1[C@@H]1CCN(C2CCC2)C1 (as salt: hydrochloride) [Example 51, 2-[(3R)-1-cyclobutylpyrrolidin-3-yl]-6-(4-fluorophenyl)-3,4-dihydroisoquinolin-1(2H)-one] | 231 to 233
O=C(c1cccc(-c2ccc3c(c2)CCN([C@@H]2CCN(C4CCC4)C2)C3=O)c1)N1CCCC1 (as salt: hydrochloride) [Example 52, 2-[(3R)-1-cyclobutylpyrrolidin-3-yl]-6-[3-(pyrrolidin-1-ylcarbonyl)phenyl]-3,4-dihydroisoquinolin-1(2H)-one] | 203 to 205
CN1CC[C@@H](N2CCc3cc(-c4ccc(C(=O)N5CCCC5)cc4)ccc3C2=O)C1 (as salt: hydrochloride) [Example 55, 2-[(3R)-1-methylpyrrolidin-3-yl]-6-[4-(pyrrolidin-1-ylcarbonyl)phenyl]-3,4-dihydroisoquinolin-1(2H)-one] | > 230
CC(C)N1CC[C@@H](N2CCc3cc(-c4ccc(C(=O)N5CCCC5)cc4)ccc3C2=O)C1 (as salt: hydrochloride) [Example 56, 2-[(3R)-1-(1-methylethyl)pyrrolidin-3-yl]-6-[4-(pyrrolidin-1-ylcarbonyl)phenyl]-3,4-dihydroisoquinolin-1(2H)-one] | 220 to 222
O=C(c1ccc(-c2ccc3c(c2)CCN([C@@H]2CCN(C4CCCCC4)C2)C3=O)cc1)N1CCCC1 (as salt: hydrochloride) [Example 57, 2-[(3R)-1-cyclohexylpyrrolidin-3-yl]-6-[4-(pyrrolidin-1-ylcarbonyl)phenyl]-3,4-dihydroisoquinolin-1(2H)-one] | 279 to 281
O=C(c1ccc(-c2ccc3c(c2)CCN([C@@H]2CCN(CC4CC4)C2)C3=O)cc1)N1CCCC1 (as salt: hydrochloride) [Example 58, 2-[(3R)-1-(cyclopropylmethyl)pyrrolidin-3-yl]-6-[4-(pyrrolidin-1-ylcarbonyl)phenyl]-3,4-dihydroisoquinolin-1(2H)-one] | 287 to 288
O=C(c1ccc(-c2ccc3c(c2)CCN([C@@H]2CCN(CC4CCCC4)C2)C3=O)cc1)N1CCCC1 (as salt: hydrochloride) [Example 59, 2-[(3R)-1-(cyclopentylmethyl)pyrrolidin-3-yl]-6-[4-(pyrrolidin-1-ylcarbonyl)phenyl]-3,4-dihydroisoquinolin-1(2H)-one] | 288 to 290
O=C(c1ccc(-c2ccc3c(c2)CCN([C@@H]2CCN(Cc4ccoc4)C2)C3=O)cc1)N1CCCC1 (as salt: hydrochloride) [Example 60, 2-[(3R)-1-(furan-3-ylmethyl)pyrrolidin-3-yl]-6-[4-(pyrrolidin-1-ylcarbonyl)phenyl]-3,4-dihydroisoquinolin-1(2H)-one] | 254 to 256
O=C(c1ccc(-c2ccc3c(c2)CCN([C@@H]2CCN(Cc4ccco4)C2)C3=O)cc1)N1CCCC1 (as salt: hydrochloride) [Example 61, 2-[(3R)-1-(furan-2-ylmethyl)pyrrolidin-3-yl]-6-[4-(pyrrolidin-1-ylcarbonyl)phenyl]-3,4-dihydroisoquinolin-1(2H)-one] | 254 to 256
O=C(c1ccc(-c2ccc3c(c2)CCN([C@@H]2CCN(Cc4cccs4)C2)C3=O)cc1)N1CCCC1 (as salt: hydrochloride) [Example 62, 6-[4-(pyrrolidin-1-ylcarbonyl)phenyl]-2-[(3R)-1-(thiophen-2-ylmethyl)pyrrolidin-3-yl]-3,4-dihydroisoquinolin-1(2H)-one] | 249 to 250
O=C(c1ccc(-c2ccc3c(c2)CCN(C2CCN(C4CCC4)CC2)C3=O)cc1)N1CCCC1 (as salt: hydrochloride) [Example 65, 2-(1-cyclobutylpiperidin-4-yl)-6-[4-(pyrrolidin-1-ylcarbonyl)phenyl]-3,4-dihydroisoquinolin-1(2H)-one] | > 300
O=C(c1ccc(-c2ccc3c(c2)CCN(C2CCN(C4CCCC4)CC2)C3=O)cc1)N1CCCC1 (as salt: hydrochloride) [Example 66, 2-(1-cyclopentylpiperidin-4-yl)-6-[4-(pyrrolidin-1-ylcarbonyl)phenyl]-3,4-dihydroisoquinolin-1(2H)-one] | > 300
CC(C)N1CCC(N2CCc3cc(-c4ccc(C(=O)N5CCCC5)cc4)ccc3C2=O)CC1 (as salt: hydrochloride) [Example 67, 2-(1-isopropylpiperidin-4-yl)-6-[4-(pyrrolidin-1-ylcarbonyl)phenyl]-3,4-dihydroisoquinolin-1(2H)-one] | > 300
O=C(c1ccc(-c2ccc3c(c2)CCN([C@@H]2CCCN(C4CCC4)C2)C3=O)cc1)N1CCCC1 (as salt: hydrochloride) [Example 70, 2-[(3R)-1-cyclobutylpiperidin-3-yl]-6-[4-(pyrrolidin-1-ylcarbonyl)phenyl]-3,4-dihydroisoquinolin-1(2H)-one] | 260.5 to 262
O=C(c1ccc(-c2ccc3c(c2)CCN([C@@H]2CCCN(C4CCCC4)C2)C3=O)cc1)N1CCCC1 (as salt: hydrochloride) [Example 71, 2-[(3R)-1-cyclopentylpiperidin-3-yl]-6-[4-(pyrrolidin-1-ylcarbonyl)phenyl]-3,4-dihydroisoquinolin-1(2H)-one] | > 250
CC(C)N1CCC[C@@H](N2CCc3cc(-c4ccc(C(=O)N5CCCC5)cc4)ccc3C2=O)C1 (as salt: hydrochloride) [Example 72, 2-[(3R)-1-isopropylpiperidin-3-yl]-6-[4-(pyrrolidin-1-ylcarbonyl)phenyl]-3,4-dihydroisoquinolin-1(2H)-one] | 274 to 275
C[C@H]1CCCN1C(=O)c1ccc(-c2ccc3c(c2)CCN([C@@H]2CCN(C4CCC4)C2)C3=O)c(F)c1 (as salt: hydrochloride) [Example 73, 2-[(3R)-1-cyclobutylpyrrolidin-3-yl]-6-(2-fluoro-4-{[(2S)-2-methylpyrrolidin-1-yl]carbonyl}phenyl)-3,4-dihydroisoquinolin-1(2H)-one] | 212 to 213
O=C(NC1CCC1)c1ccc(-c2ccc3c(c2)CCN([C@@H]2CCN(C4CCC4)C2)C3=O)c(F)c1 (as salt: hydrochloride) [Example 74, N-cyclobutyl-4-{2-[(3R)-1-cyclobutylpyrrolidin-3-yl]-1-oxo-1,2,3,4-tetrahydroisoquinolin-6-yl}-3-fluorobenzamide] | > 230
CNC(=O)c1ccc(-c2ccc3c(c2)CCN([C@@H]2CCN(C4CCC4)C2)C3=O)c(F)c1 (as salt: hydrochloride) [Example 75, 4-{2-[(3R)-1-cyclobutylpyrrolidin-3-yl]-1-oxo-1,2,3,4-tetrahydroisoquinolin-6-yl}-3-fluoro-N-methylbenzamide] | 220 to 221
C[C@@H]1CCCN1C(=O)c1ccc(-c2ccc3c(c2)CCN([C@@H]2CCN(C4CCC4)C2)C3=O)c(F)c1 (as salt: hydrochloride) [Example 76, 2-[(3R)-1-cyclobutylpyrrolidin-3-yl]-6-(2-fluoro-4-{[(2R)-2-methylpyrrolidin-1-yl]carbonyl}phenyl)-3,4-dihydroisoquinolin-1(2H)-one] | 239 to 241

Reference: US20090069370A1, “AZACYCLYLISOQUINOLINONE AND ISOINDOLINONE DERIVATIVES AS HISTAMINE-3 ANTAGONISTS” (Wyeth, priority 2007, published 2009)
